Results taken from US20150374680A1, “POCHOXIME CONJUGATES USEFUL FOR THE TREATMENT OF HSP90 RELATED PATHOLOGIES” (UNIVERSITE DE STRASBOURG, priority 2010, published 2015).

Tests used:
[1] = system: HCC1569; assay: Proliferation assay in HCC1569; assay type: cell-based; conditions: Homo sapiens, HCC1569, Breast (Her2+; Her2i res)
Description: (§1) The compounds were dissolved in 100% DMSO to make 10 mM stock solutions. HER2+BT474 breast carcinoma cells were cultured in DMEM/F12 media, supplemented with 10% FBS. Log-phase growing BT474 cells were seeded in 96 well plates at 1.5×10E4 per well. At this cell density, BT474 is expected to reach confluency about 70-80% in 3 days. Different dilutions of compounds or vehicle in 200 μl (concentration range 0.004-10 μM) were added to the cells and incubated for 72 hours. Upon completion of the incubation, media were gently removed by suction and 100 μl of ATPlite solution (Perkin Elmer) was added in each well. Viable cells were measured by detecting luminescence generated from reaction of ATPlite solution and ATP in the cells using a 96-well microplate luminescence reader. Relative luminescence light unit is correlated to the amount of ATP in viable cells. The assays were performed in duplicates. IC50 was calculated using XLfit. The IC50 shown in Table 4 below is the average IC50 from three independent experiments.
(§2) Additional proliferation assays were performed for certain exemplified compounds using the methods similar to the one described above in multiple cancer cell lines.

[2] = system: HCC827; assay: Proliferation assay in HCC827; assay type: cell-based; conditions: Homo sapiens, HCC827, Lung (EGFR mut)
Description: as §1, §2

[3] = system: H1975; assay: Proliferation assay in H1975; assay type: cell-based; conditions: Homo sapiens, NCI-H1975, H1975, Lung (EGFR mut)
Description: as §1, §2

[4] = system: NCI-H2228; assay: Proliferation assay in NCI-H2228; assay type: cell-based; conditions: Homo sapiens, NCI-H2228, Lung (EML4-ALK+)
Description: as §1, §2

[5] = system: H23; assay: Proliferation assay in H23; assay type: cell-based; conditions: Homo sapiens, NCI-H23, H23, Lung
Description: as §1, §2

[6] = system: H460; assay: Proliferation assay in H460; assay type: cell-based; conditions: Homo sapiens, NCI-H460, H460, Lung
Description: as §1, §2

[7] = system: N87; assay: Proliferation assay in N87; assay type: cell-based; conditions: N87, Gastric (Her2+)
Description: as §1, §2

[8] = system: SKOV-3; assay: Proliferation assay in SKOV-3; assay type: cell-based; conditions: Homo sapiens, SK-OV-3, SKOV-3, Ovarian (Her2+)
Description: as §1, §2

[9] = system: A498; assay: Proliferation assay in A498; assay type: cell-based; conditions: Homo sapiens, A498, Renal (VHL mut)
Description: as §1, §2

[10] = system: RPM18226; assay: Proliferation assay in RPM18226; assay type: cell-based; conditions: RPM18226, Multiple myeloma
Description: as §1, §2

[11] = system: PC3; assay: Proliferation assay in PC3; assay type: cell-based; conditions: Homo sapiens, PC-3, PC3, Prostate
Description: as §1, §2

[12] = system: HCT116; assay: Proliferation assay in HCT116; assay type: cell-based; conditions: Homo sapiens, HCT-116, HCT116, Colon
Description: as §1, §2

[13] = system: HT29; assay: Proliferation assay in HT29; assay type: cell-based; conditions: Homo sapiens, HT-29, HT29, Colon
Description: as §1, §2

[14] = system: BT474 breast tumor cells; conditions: xenografts bearing BT474 breast tumor cells; earlier work of the inventors; cited from earlier work
[15] = system: HSP90 client protein in SKBR3 cell lines; conditions: earlier work of the inventors; cited from earlier work

| Structure (SMILES) | IC50 [1] | IC50 [2] | IC50 [3] | IC50 [4] | IC50 [5] | IC50 [6] | IC50 [7] | IC50 [8] | IC50 [9] | IC50 [10] | IC50 [11] | IC50 [12] | IC50 [13] | Effect on tumor in xenografts [14] | Concentration inducing client protein degradation [15] |
| --- | --- | --- | --- | --- | --- | --- | --- | --- | --- | --- | --- | --- | --- | --- | --- |
| C[C@@H]1C/C=C/[C@@H](N)C/C=C/C(=N/OCC(=O)N2CCCCC2)Cc2cc(O)cc(O)c2C(=O)O1 [As-13(6S)-E] | 140 nM | 79 nM | 37 nM | 87 nM | 41 nM | 33 nM | 7 nM | 33 nM | 180 nM | 46 nM | 44 nM | 76 nM | 33 nM | – | – |
| C[C@@H]1C/C=C/[C@@H](N)C/C=C/C(=N\OCC(=O)N2CCCCC2)Cc2cc(O)cc(O)c2C(=O)O1 [As-13(6S)-Z] | 175 nM | 105 nM | 51 nM | 139 nM | – | – | 12 nM | – | 166 nM | 72 nM | 82 nM | 101 nM | 92 nM | – | – |
| O=C1OCC/C=C/CC/C=C/C(=N/OCC(=O)N2CCCCC2)Cc2c(Cl)c(O)cc(O)c21 [pochoxime A] | – | – | – | – | – | – | – | – | – | – | – | – | – | tumor regression | low nM |
